Results on eleven molecules are retold here after US12178809B2, “Pyridinyl sulfonamide derivatives, pharmaceutical compositions and uses thereof” (Boehringer Ingelheim International GmbH, priority 2018, dated 2024).

Structures can show the parent of a compound that is named as a salt. Where two headings read alike, the source gives them in different places.

One test has as its target human AOC3 enzyme (Homo sapiens (Human), UniProt Q16853). Kind of test: AOC3 biochemical assay (MAO-Glo). An excerpt:
The MAO-Glo™ Assay (commercially available from PROMEGA, #V1402) provides a sensitive method for the measurement of monoamine oxidase (MAO) activity (Valley, M. P. et al., 2006, Anal. Biochem. 359: 238-246) from a variety of tissues, biofluids or recombinant expressed or purified enzymes. As substrate a derivate of the beetle luciferin ((4S)-4,5-dihydro-2-(6-hydroxybenzothiazolyl)-4-thiazole-carboxylic acid) is used, which is oxidized at a primary amine moiety. After a spontaneous elimination and a catalyzed esterase reaction, the turnover of the luciferine by the luciferase is recorded as a signal of AOC3 activity.
An aliquot of 3 μL of the compound dilution is added to a 384 well plate (Optiplate, PS, flat bottom, white, PERKIN ELMER, #6007290) with a final DMSO concentration of 6.6%. Recombinant CHO cells, overexpressing the human (1500 cells/well), mouse (1000 cells/well) or rat (500 cells/well) AOC3 enzyme are diluted in reaction buffer and added in a volume of 15 μL to the wells. After incubation for 20 minutes at 37° C., 2 μL of MAO substrate (dissolved in DMSO at 16 mM, adjusted to assay concentration in reaction buffer to a final assay concentration of 20 μM) is added and further incubated for 60 minutes at 37° C. The turnover of the substrate is determined by the addition of 20 μL of the detection-mix which was generated by the addition of reconstitution buffer with esterase (PROMEGA, #V1402) to the luciferine detection reagent (PROMEGA, #V1402). After an incubation period of 20 minutes, the luminescent signal is measured with Envision 2104 Multilabel Reader (PERKIN ELMER).

For a further test, the target named is AOC2 (Homo sapiens (Human), UniProt O75106). Description: AOC2 biochemical assay (Amplex Red). Here is the method: An aliquot of 5 μL of the compound dilution is added to a 96 well plate (flat bottom F, black, GREINER bio-one, #655900) in a DMSO concentration of 2%. […] Cells are cultured for 3 days in EMEM culture medium containing 10% FCS (#04-00-1A, Biological Industries). After washing twice with ice cold PBS, cells are lysed by mechanic homogenation and cleared supernatants are shock frozen in liquid nitrogen and stored at -80° C. […] An Aliquot of 45 μL is added to the compound dilution and incubated for 30 min at 37° C. The enzymatic reaction is started with the addition of 50 μL of Amplex® Red reaction mix (final assay concentration: 100 mM sodiumphosphate, 120 μM Amplex® Red reagent (#A22177 Molecular Probes), 1.5 U/mL Horseradish Peroxidase (#P8375 Sigma-Aldrich), 2 mM phenylethylamine (#[…] Sigma-Aldrich), 0.05% Pluronic F-127 (#P3000MP Sigma-Aldrich), pH 7.4, 37° C.). The turnover per time of the substrate is determined directly with a fluorescence reader (Ex 540 nm/Em 590 nm) like Envision 2104 Multilabel Reader (PERKIN ELMER) for 60 min.

The target in a further test is AOC1 (Homo sapiens (Human), UniProt P19801). Kind of test: AOC1 biochemical assay (Amplex Red). Here is the method: The Amplex® Red Assay (available from Thermo Fisher Scientific) provides a sensitive method for the detection of H2O2 generated during enzymatic reactions like the amine oxidation catalyzed by AOC1. The assay reagent is a colorless substrate (N-acetyl-3,7-dihydroxyphenoxazine) that reacts in a 1:1 stoichiometry with hydrogen peroxide (H2O2) to produce the fluorescent dye resorufin (7-hydroxyphenoxazin-3-one, excitation/emission maxima=570/585 nm).
An aliquot of 3 μL of the compound dilution is added to a 384 well plate (Optiplate, PS, flat bottom F, black, PERKIN ELMER, #6007270) in a DMSO concentration of 6.6%.
An AOC1 enzyme aliquot (#8297-AO-010, R&D Systems) is thawed on ice, diluted in reaction buffer and added in a volume of 7 μL to the wells to give a final assay concentration of 1 ng/well. After incubation of inhibitor and enzyme for 30 minutes at 37° C., the enzymatic reaction is started with the addition of 10 μL of Amplex® Red reaction mix (final assay concentration: 100 mM sodiumphosphate, 120 μM Amplex® Red reagent (#A22177 Molecular Probes), 1.5 U/mL Horseradish Peroxidase (#P8375 Sigma-Aldrich), 200 μM putrescine (#P7505 Sigma-Alrdich), 0.05% Pluronic F-127 (#P3000MP Sigma-Aldrich), pH 7.4, 37° C.).
After an incubation for 30 minutes at 37° C. the turnover of the substrate is determined directly (or after the addition of an excess of an amine-oxidase inhibitor) with a fluorescence reader (Ex 540 nm/Em 590 nm) like Envision 2104 Multilabel Reader (PERKIN ELMER).

In general, IC50 refers to the concentration that inhibits the measured activity by half.

human AOC3 enzyme, sequence (Q16853 whole entry): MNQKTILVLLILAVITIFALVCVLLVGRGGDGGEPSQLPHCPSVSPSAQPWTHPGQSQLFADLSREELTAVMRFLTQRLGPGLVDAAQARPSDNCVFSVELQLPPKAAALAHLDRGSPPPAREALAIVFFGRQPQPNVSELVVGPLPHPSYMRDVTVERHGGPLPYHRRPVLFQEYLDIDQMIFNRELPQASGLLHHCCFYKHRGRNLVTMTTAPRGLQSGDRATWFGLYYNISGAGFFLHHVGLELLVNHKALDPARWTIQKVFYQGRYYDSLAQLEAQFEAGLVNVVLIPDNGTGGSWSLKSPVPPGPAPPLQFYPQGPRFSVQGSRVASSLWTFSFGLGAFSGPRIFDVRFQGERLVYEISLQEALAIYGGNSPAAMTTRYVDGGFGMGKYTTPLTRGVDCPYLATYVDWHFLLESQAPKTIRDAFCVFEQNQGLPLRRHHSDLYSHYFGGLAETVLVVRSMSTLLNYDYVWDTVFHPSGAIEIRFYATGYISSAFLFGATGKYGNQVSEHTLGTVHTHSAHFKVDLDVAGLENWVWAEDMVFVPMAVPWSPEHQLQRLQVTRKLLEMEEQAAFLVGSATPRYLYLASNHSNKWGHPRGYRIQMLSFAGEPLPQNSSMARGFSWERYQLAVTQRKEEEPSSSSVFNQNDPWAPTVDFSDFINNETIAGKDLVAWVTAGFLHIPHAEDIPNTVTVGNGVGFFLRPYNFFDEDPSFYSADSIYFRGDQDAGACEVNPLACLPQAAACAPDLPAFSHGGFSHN
AOC1, sequence (P19801 20-751): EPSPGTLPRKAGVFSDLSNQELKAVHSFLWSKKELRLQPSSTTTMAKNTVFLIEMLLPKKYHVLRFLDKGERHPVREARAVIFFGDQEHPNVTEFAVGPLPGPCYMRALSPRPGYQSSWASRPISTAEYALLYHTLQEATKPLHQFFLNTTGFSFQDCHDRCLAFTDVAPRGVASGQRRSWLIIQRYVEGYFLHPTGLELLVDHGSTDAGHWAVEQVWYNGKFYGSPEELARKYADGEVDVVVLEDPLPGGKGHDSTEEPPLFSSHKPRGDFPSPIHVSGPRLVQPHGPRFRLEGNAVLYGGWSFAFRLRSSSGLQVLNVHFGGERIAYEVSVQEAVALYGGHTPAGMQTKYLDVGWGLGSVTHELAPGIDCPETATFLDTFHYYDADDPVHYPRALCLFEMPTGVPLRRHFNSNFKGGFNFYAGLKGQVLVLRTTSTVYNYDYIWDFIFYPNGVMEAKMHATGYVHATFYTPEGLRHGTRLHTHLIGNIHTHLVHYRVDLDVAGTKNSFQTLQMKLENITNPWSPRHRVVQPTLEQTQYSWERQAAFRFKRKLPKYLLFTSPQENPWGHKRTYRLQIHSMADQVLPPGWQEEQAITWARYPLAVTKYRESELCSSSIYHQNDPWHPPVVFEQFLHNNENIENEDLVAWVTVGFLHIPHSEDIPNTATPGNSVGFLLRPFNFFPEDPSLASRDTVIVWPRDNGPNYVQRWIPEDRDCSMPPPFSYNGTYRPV
AOC2, sequence (O75106 whole entry): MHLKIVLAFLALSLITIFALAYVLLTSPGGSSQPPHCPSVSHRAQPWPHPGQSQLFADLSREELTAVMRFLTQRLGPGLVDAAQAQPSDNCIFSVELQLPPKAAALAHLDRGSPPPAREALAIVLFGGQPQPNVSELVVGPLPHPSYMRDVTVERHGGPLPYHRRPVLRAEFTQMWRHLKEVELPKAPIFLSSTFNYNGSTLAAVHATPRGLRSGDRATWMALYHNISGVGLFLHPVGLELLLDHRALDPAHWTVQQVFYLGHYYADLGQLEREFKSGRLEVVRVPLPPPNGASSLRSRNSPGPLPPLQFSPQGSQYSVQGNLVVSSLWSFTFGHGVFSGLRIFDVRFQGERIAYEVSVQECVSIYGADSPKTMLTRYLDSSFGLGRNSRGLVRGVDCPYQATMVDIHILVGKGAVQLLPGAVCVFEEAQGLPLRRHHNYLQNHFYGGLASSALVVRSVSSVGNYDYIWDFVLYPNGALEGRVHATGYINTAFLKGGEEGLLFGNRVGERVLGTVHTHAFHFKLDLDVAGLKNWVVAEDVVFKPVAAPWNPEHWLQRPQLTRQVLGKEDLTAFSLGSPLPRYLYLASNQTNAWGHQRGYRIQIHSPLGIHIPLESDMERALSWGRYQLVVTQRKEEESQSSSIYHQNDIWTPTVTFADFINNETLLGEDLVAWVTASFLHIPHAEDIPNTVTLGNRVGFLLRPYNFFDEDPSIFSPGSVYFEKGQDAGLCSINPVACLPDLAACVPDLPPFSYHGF

For the molecule `COC(=O)C1CCN(S(=O)(=O)c2ccc(OC/C(=C/F)CN)nc2)CC1` [Example 51, 1-[6-((E)-2-Aminomethyl-3-fluoro-allyloxy)-pyridine-3-sulfonyl]-piperidine-4-carboxylic acid methyl ester trifluoroacetate], the IC50 at human AOC3 enzyme (read-out: AOC3 IC50) came out at 13 nM; at AOC2 (read-out: AOC2 IC50), 325 nM; at AOC1 (read-out: AOC1 IC50), 48 µM.

Take `COC(=O)[C@H]1[C@@H]2CN(S(=O)(=O)c3ccc(OC/C(=C/F)CN)nc3)C[C@@H]21` [Example 52]: the 50% inhibitory concentration (IC50) at human AOC3 enzyme (read-out: AOC3 IC50) is 9 nM; at AOC2 (read-out: AOC2 IC50), 315 nM; on AOC1 (read-out: AOC1 IC50), 41.8 µM.

On to `COC(=O)C1(C)CCN(S(=O)(=O)c2ccc(OC/C(=C/F)CN)nc2)CC1` [Example 53], for which the results for the IC50 on human AOC3 enzyme (read-out: AOC3 IC50), at AOC2 (read-out: AOC2 IC50) and on AOC1 (read-out: AOC1 IC50) were 15 nM, 19 nM and above 50 µM, respectively.

With `NC/C(=C\F)COc1ccc(S(=O)(=O)N2CCC(CC(=O)O)CC2)cn1` [Example 54, trifluoroacetate], the values for the IC50 on human AOC3 enzyme (read-out: AOC3 IC50), at AOC2 (read-out: AOC2 IC50) and on AOC1 (read-out: AOC1 IC50) were 308 nM, 4 nM and above 50 µM, respectively.

For the molecule `NC/C(=C\F)COc1ccc(S(=O)(=O)N2C[C@@H]3[C@H](C2)[C@H]3C(=O)O)cn1` [Example 55, trans-3-[6-((E)-2-Aminomethyl-3-fluoro-allyloxy)-pyridine-3-sulfonyl]-3-aza-bicyclo[3.1.0]hexane-6-carboxylic acid trifluoroacetate], the concentration for half-maximal inhibition (IC50) was 391 nM at human AOC3 enzyme (read-out: AOC3 IC50), 50 nM on AOC2 (read-out: AOC2 IC50) and above 50 µM on AOC1 (read-out: AOC1 IC50).

On to `NC/C(=C\F)COc1ccc(S(=O)(=O)N2CCC(C(=O)O)CC2)cn1` [Example 56], for which the IC50 at human AOC3 enzyme (read-out: AOC3 IC50) came out at 89 nM; on AOC2 (read-out: AOC2 IC50) it was 34 nM; on AOC1 (read-out: AOC1 IC50) it was 34.7 µM.

As to `CC1(C(=O)O)CCN(S(=O)(=O)c2ccc(OC/C(=C/F)CN)nc2)CC1` [Example 57], the IC50 on human AOC3 enzyme (read-out: AOC3 IC50) is 2690 nM; at AOC2 (read-out: AOC2 IC50) it was 6 nM; at AOC1 (read-out: AOC1 IC50) it was above 50 µM.

As for `CC1(C(=O)NC2CCOCC2)CCN(S(=O)(=O)c2ccc(OC/C(=C/F)CN)nc2)CC1` [Example 58, 1-[6-((E)-2-Aminomethyl-3-fluoro-allyloxy)-pyridine-3-sulfonyl]-4-methyl-piperidine-4-carboxylic acid (tetrahydropyran-4-yl)-amide trifluoroacetate], the IC50 on human AOC3 enzyme (read-out: AOC3 IC50) was 114 nM; on AOC2 (read-out: AOC2 IC50) it was 363 nM; on AOC1 (read-out: AOC1 IC50), above 49.9 µM.

Take `NC/C(=C\F)COc1ccc(S(=O)(=O)N2CCC(CC(N)=O)CC2)cn1` [Example 60]: the IC50 was 21 nM at human AOC3 enzyme (read-out: AOC3 IC50), 92 nM on AOC2 (read-out: AOC2 IC50) and above 50 µM at AOC1 (read-out: AOC1 IC50).

On to `CC1(C(N)=O)CCN(S(=O)(=O)c2ccc(OC/C(=C/F)CN)nc2)CC1` [Example 61], for which the IC50 was 26 nM at human AOC3 enzyme (read-out: AOC3 IC50), 61 nM at AOC2 (read-out: AOC2 IC50) and above 50 µM at AOC1 (read-out: AOC1 IC50).

Consider `COC1CN(S(=O)(=O)c2ccc(OC/C(=C/F)CN)cc2)C1` [Reference compound A, reference compound], for which the IC50 is 13 nM at human AOC3 enzyme (comparison table, read-out: IC50 AOC3); 287 nM on AOC2 (comparison table, read-out: IC50 AOC2); above 50 µM at AOC1 (comparison table, unit μM, read-out: IC50 AOC1). Also, the “fold less active against AOC2 as compared to AOC3 (ratio IC50 AOC2/IC50 AOC3)” value on AOC2 turned out to be 22 fold.
